Results from the supplement of paper PMC10307832.

Columns and labels:
Test in all cases: relative viability (nuclei count vs DMSO), 5 days (fraction); higher = more cells survive
[1] = compound: CC(=O)c1c(C)c2cnc(Nc3ccc(N4CCNCC4)cn3)nc2n(C2CCCC2)c1=O [Palbociclib] + CC(C)C[C@H](NC(=O)[C@H](Cc1ccccc1)NC(=O)c1cnccn1)B(O)O [Bortezomib] (partner 0.002 µM)
Method in brief: (§1)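 Relative viability was taken as the ratio of nuclei in treated wells to nuclei in vehicle wells. Lung cancer cell lines in 1536-well plates received compounds by pin tool one day after seeding, either one drug alone or a fixed anchor-drug dose plus five library-drug doses (not always all listed) in √10 steps. Nuclei were counted on 4× images after 5 days of treatment, and values are medians of duplicate plates.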

[2] = compound: CC(=O)c1c(C)c2cnc(Nc3ccc(N4CCNCC4)cn3)nc2n(C2CCCC2)c1=O [Palbociclib] + CS(=O)(=O)N1CCN(Cc2cc3nc(-c4cccc5[nH]ncc45)nc(N4CCOCC4)c3s2)CC1 [Pictilisib] (partner 1 µM)
Method in brief: as §1

[3] = compound: CC(=O)c1c(C)c2cnc(Nc3ccc(N4CCNCC4)cn3)nc2n(C2CCCC2)c1=O [Palbociclib] + C[C@@H](Oc1cc(-c2cnn(C3CCNCC3)c2)cnc1N)c1c(Cl)ccc(F)c1Cl [Crizotinib] (partner 1 µM)
Method in brief: as §1

[4] = compound: CC(=O)c1c(C)c2cnc(Nc3ccc(N4CCNCC4)cn3)nc2n(C2CCCC2)c1=O [Palbociclib] + Cc1nc(NC(=O)N2CCC[C@H]2C(N)=O)sc1-c1ccnc(C(C)(C)C(F)(F)F)c1 [Alpelisib] (partner 2 µM)
Method in brief: as §1

| Cell Line | relative viability ([1]; first compound 0.01 µM) | relative viability ([1]; first compound 0.03162 µM) | relative viability ([1]; first compound 0.1 µM) | relative viability ([1]; first compound 0.3162 µM) | relative viability ([1]; first compound 1 µM) | relative viability ([2]; first compound 0.01 µM) | relative viability ([2]; first compound 0.03162 µM) | relative viability ([2]; first compound 0.1 µM) | relative viability ([2]; first compound 0.3162 µM) | relative viability ([2]; first compound 1 µM) | relative viability ([3]; first compound 0.01 µM) | relative viability ([3]; first compound 0.03162 µM) | relative viability ([3]; first compound 0.1 µM) | relative viability ([3]; first compound 0.3162 µM) | relative viability ([3]; first compound 1 µM) | relative viability ([4]; first compound 0.01 µM) | relative viability ([4]; first compound 0.03162 µM) | relative viability ([4]; first compound 0.1 µM) | relative viability ([4]; first compound 0.3162 µM) | relative viability ([4]; first compound 1 µM) |
| --- | --- | --- | --- | --- | --- | --- | --- | --- | --- | --- | --- | --- | --- | --- | --- | --- | --- | --- | --- | --- |
| HCC-78 | 0.385 | 0.451 | 0.366 | 0.454 | 0.406 | 0.206 | 0.202 | 0.19 | 0.251 | 0.154 | 0.375 | 0.328 | 0.266 | 0.27 | 0.269 | 0.305 | 0.242 | 0.217 | 0.263 | 0.216 |
| HCC-366 | 0.953 |  | 0.965 | 0.975 | 0.616 | 0.137 |  | 0.168 | 0.14 | 0.0548 | 0.539 |  | 0.501 | 0.526 | 0.413 | 0.517 |  | 0.345 | 0.209 | 0.204 |
| HCC-827 | 1.09 | 0.804 | 0.954 | 0.948 | 0.857 | 0.859 | 1.02 | 0.986 | 0.951 | 0.746 | 0.904 | 0.889 | 0.844 | 0.787 | 0.781 | 1.04 | 0.927 | 0.913 | 0.819 | 0.652 |
| HOP-62 | 0.418 |  | 0.741 | 0.612 | 0.57 | 0.775 |  | 0.516 | 0.551 | 0.358 | 0.817 |  | 0.842 | 0.812 | 0.666 | 0.851 |  | 0.797 | 0.831 | 0.648 |
| IA-LM | 0.606 | 0.49 | 0.469 | 0.348 | 0.134 | 0.299 | 0.215 | 0.167 | 0.113 | 0.0912 | 0.748 | 0.505 | 0.373 | 0.138 | 0.0793 | 0.826 | 0.675 | 0.456 | 0.373 | 0.144 |
| LC-2-ad | 1.03 |  | 0.779 | 0.704 | 0.469 | 0.45 |  | 0.346 | 0.305 | 0.223 | 0.417 |  | 0.421 | 0.44 | 0.328 | 0.876 |  | 0.701 | 0.641 | 0.463 |
| LCLC-97TM1 | 0.729 | 0.514 | 0.396 | 0.319 | 0.138 | 0.199 |  | 0.122 | 0.157 | 0.101 | 0.345 |  | 0.257 | 0.313 | 0.259 | 0.291 |  | 0.189 | 0.209 | 0.189 |
| LCLC-103H | 1.2 | 0.957 | 0.967 | 0.87 | 0.649 | 0.564 | 0.536 | 0.543 | 0.591 | 0.436 | 1.04 | 1.04 | 0.846 | 0.995 | 0.804 | 0.756 | 1.03 | 0.821 | 0.796 | 0.688 |
| LOU-NH91 | 0.458 | 0.439 | 0.441 | 0.446 | 0.489 | 0.547 | 0.479 | 0.484 | 0.465 | 0.446 | 0.745 | 0.676 | 0.584 | 0.592 | 0.505 | 0.753 | 0.609 | 0.545 | 0.576 | 0.55 |
